Assay results published in ChEMBL document CHEMBL5131430, “Free radical scavenging activities of verbascoside and isoverbascoside from the leaves of Odontonema strictum (Acanthaceae)” (Bioorg Med Chem Lett, 2022).
≈ marks a conversion by molar mass, not a printed value.

Assays:
[1] = Antioxidant activity assessed as DPPH radical scavenging activity; assay type: functional
[2] = Antioxidant activity assessed as hydrogen peroxide scavenging activity; assay type: functional

C[C@@H]1O[C@@H](O[C@@H]2[C@@H](O)[C@H](OCCc3ccc(O)c(O)c3)O[C@H](COC(=O)/C=C/c3ccc(O)c(O)c3)[C@H]2O)[C@H](O)[C@H](O)[C@H]1O [ISOACTEOSIDE]
IC50 [1]: 0.16 µg/mL (≈ 0.256 µM) | IC50 [2]: 3 µg/mL (≈ 4.8 µM)

O=C1O[C@H]([C@@H](O)CO)C(O)=C1O [ASCORBIC ACID]
IC50 [1]: 0.05 µg/mL (≈ 0.284 µM) | IC50 [2]: 4.1 µg/mL (≈ 23.3 µM)

C[C@@H]1O[C@@H](O[C@@H]2[C@@H](O)[C@H](OCCc3ccc(O)c(O)c3)O[C@H](CO)[C@H]2OC(=O)/C=C/c2ccc(O)c(O)c2)[C@H](O)[C@H](O)[C@H]1O [ACETOSIDE]
IC50 [1]: 0.09 µg/mL (≈ 0.144 µM) | IC50 [2]: 2.6 µg/mL (≈ 4.16 µM)
